Experimental data from US9089548B2, “Composition for protection against cell-damaging effects” (TIMA FOUNDATION, priority 2011, dated 2015).

Legend:
[1] = test system: hydrogen peroxide in the blood of mice; assay: Hydrogen peroxide concentration in blood of 6 Gy irradiated mice (d-ROMs test); assay type: in vivo, C57BL/6 mice; conditions: Example 7; for Hydrogen peroxide concentration: three times in 24 h interval before 6 Gy, blood 72 h after irradiation
Protocol: For the following experiments C57BL/6 mice (21 gram body weight) were purchased from Japan SLC (Shizuoka, Japan). The mice were used for the experiments with an age of 8 weeks.
In this Experiment Six Groups were Built, Wherein Each Group Comprises 6 Mice: • a) the first group of mice were not treated and built the negative control, • b) the second group of mice built the positive control, thus the mice were treated with 6 Gy radiation and 72 hours after irradiation blood sampling was performed, • c) the third group of mice was treated with 150 mg Vitamin C per kg body weight, • d) the forth group of mice was treated with 15 mg Vitamin C per kg body weight, and • e) the fifth group of mice was treated with 15 mg of the composition in Example 6 per kg body weight.
The following experiment was performed for the first, second and fifth group in three independent experiments, for the third group in two independent experiments and for the forth group in one experiment.
Each mouse was placed in a well-ventilated acrylic container. The composition in Example 6 and Vitamin C, respectively suspended in 0.5 ml water was orally administered three times in a 24 hours interval to the mice of the third to fifth group. 24 hours after the third administration mice were exposed to 6 Gy whole body irradiation (WBI), given at a dose rate of 0.45 Gy/min at 150 kV and 5 mA (HITACHI MBR-1505R2, Tokyo, Japan). The beam was filtered through a 2 mm aluminum board. 72 hours after irradiation blood sampling was performed.
The d-ROMs (Reactive Oxygen Metabolites) test by using Free Carpe Diem photometric analytical system (Diacron, Grosseto, Italy) was used for the measurement of free radical metabolites in the blood samples of the mice. It is a spectrophotometric method that assesses overall oxidative stress by measuring total hydroperoxide levels, given that hydroperoxides are intermediate oxidative products of lipids, peptides, and amino acids. Briefly, 0.02 ml plasma was diluted in 1 ml acetate-buffered solution. Hydroperoxide groups react with the transition metal ions liberated from the proteins in the acidic medium, and are converted to alkoxyl and peroxyl radicals according to the Fenton reaction. These newly formed radicals, the quantities of which are directly proportional to those of the peroxides, were trapped chemically with 0.02 ml chromogen (N, N-diethyl-para-phenylendiamine), leading to the formation of the radical cation of this chromogen. The purple color resulting from this reaction over time was monitored in a spectrophotometer (Wismarll FRAS4, Tokyo, Japan) at 505 nm. The results of this method were expressed in μmol per liter. […]
c) the fifth group of mice, comprising 12 mice, was treated with 15 mg of a composition similar to that of Example 8 containing cysteine instead of cystine per kg body weight by oral administration, and
d) the sixth group of mice, comprising 12 mice, was treated with 15 mg of the composition according to Example 8 per kg body weight by intra-peritoneal administration.
Each mouse was placed in a well-ventilated acrylic container. The mice representing the positive control were exposed to 6 Gy whole body irradiation (WBI), given at a dose rate of 0.45 Gy/min at 150 kV and 5 mA (HITACHI MBR-1505R2, Tokyo, Japan). The beam was filtered through a 2 mm aluminum board. 72 hours after irradiation blood sampling was performed.
The composition in Example 8 was orally administered three times in a 24 hours interval to the mice of the second group in the concentration of 15 mg composition per kg body weight, i.e. the mice were pre-treated 3 days with the composition of Example 8 before irradiation. 24 hours after the third administration mice were irradiated using conditions as for positive control. 72 hours after irradiation blood sampling was performed. […]

[2] = test system: hen's egg white lysozyme; assay: Activity test of lysozyme X-irradiated in the presence of additives added before irradiation (a.r.); assay type: biochemical; conditions: X (1000 Gy); a.r. additive 10 mM; lysozyme 0.1 mg/ml; unirradiated lysozyme = 100%
Protocol: The hen's egg white lysozyme was purchased from Serva (Heidelberg, Germany), additives and all other substances were of the highest available grade. Lysozyme (0.1 mg/ml) and the additives (10 mM, except otherwise stated) were dissolved in dilute, air-saturated 1 mM sodium phosphate buffer pH 6.5 and were irradiated at 25° C. with X-rays (0-1 kGy) in the absence or presence of the additives. Activity tests of the lysozyme were performed as described in Shugar, 1952. The measurement of lysozyme activity and the ultra-violet inactivation of lysozyme. Biochim. Biophys. Acta 8, 302-309. were recorded in a Jasco UV/VIS spectrophotometer V-530. The activity test of lysozyme is simple and straightforward. The method described by Shugar uses the diluted unirradiated or irradiated enzyme and a cell suspension of Micrococcus lysodeikticus in a special activity buffer (66 mM sodium phosphate buffer with 17 mM NaCl, pH 7.0). The bacterium is suspended in an Erlenmeyer flask in the activity buffer at a concentration of 0.2 mg/ml. Before using the bacterial suspension in the test, the flask has to be swivelled to ensure homogeneous pipetting into the cuvette. Working briskly, the enzyme sample was pipetted to the bacterial solution, and using parafilm to tightly seal the cuvette, was homogeneously hand-mixed. Typical test mixtures (total of 3 ml) consisted of 2.98 ml bacterial solution plus 0.02 ml unirradiated enzyme sample in the absence or presence of additives, and 2.95 ml bacterial solution plus 0.05 ml irradiated enzyme (250 Gy) in the absence of additives, and 2.6 ml bacterial solution plus 0.4 ml irradiated enzyme (1000 Gy) in the absence of additives, to allow reasonable handling of the samples. The decrease in absorbance resulting from a breakdown of the bacteria by the enzyme is measured in a 3-ml cuvette in a spectrophotometer at a wavelength of 450 nm for a continuous time period of 3 min at 25° C. Different decreases in absorbance reflect different activities. The test may also be applied for lysozyme in the presence of antioxidants, since, owing to the high dilution of the samples (lysozyme+antioxidants) in the test and the wavelength used, the antioxidants will not disturb the results of the activity measurement. No further separation techniques are needed. Irradiations were performed in small 2-ml plastic cups at 25° C. The dosage measurement of X-rays was obtained by Fricke dosimetry (ferrous sulfate dosimetry). […] Afterwards the irradiated lysozyme was used in the activity assay as described in example 2 to determine the activity of the lysozyme. For comparison, activities are given in percent. The native, unirradiated lysozyme is used as reference and is considered to have 100% activity. […]

| SMILES | Difference (increase vs positive control) ([1]; 15 mg/kg oral, three times before 6 Gy, positive control 144.7) | Increase rate ([1]; 15 mg/kg oral, three times before 6 Gy, relative to radiation-induced increase 19.7 μmol/l, listed as Vitamin C, 15 mg/kg) | Hydrogen peroxide concentration ([1]; 15 mg/kg oral) | Difference (decrease vs positive control) ([1]; 150 mg/kg oral, three times before 6 Gy, positive control 144.7) | Reduction rate ([1]; 150 mg/kg oral, three times before 6 Gy, relative to radiation-induced increase 19.7 μmol/l, listed as Vitamin C, 150 mg/kg) | Hydrogen peroxide concentration ([1]; 150 mg/kg oral) | % Activity [2] |
| --- | --- | --- | --- | --- | --- | --- | --- |
| O=C1O[C@H]([C@@H](O)CO)C(O)=C1O [Ascorbic acid] | 5.1 µmol/L | 25.89% | 149.6 µmol/L | 3.8 µmol/L | 19.29% | 140.5 µmol/L | 90% |
| OC[C@@H](O)[C@@H](O)[C@H](O)[C@H](O)CO [Mannitol, mannitol] | – | – | – | – | – | – | 51% |
| O=C[O-].[Na+] [Sodium-Formate, sodium-formate] | – | – | – | – | – | – | 75% |
| N[C@@H](CCC(=O)N[C@@H](CS)C(=O)NCC(=O)O)C(=O)O [Glutathione, glutathione] | – | – | – | – | – | – | 58% |
